# Patent US20100070184A1, “METHOD FOR D[…] HIV TO PROTEASE INHIBITOR TREATMENT” (MONOGRAM BIOSCIENCES, INC., priority 2006, published 2010)
# Test system: HIV-1 from the patient plasma sample
# Experiment: PHENOSENSE HIV phenotypic assay, tipranavir IC50 fold change vs NL4-3 reference strain
# Format: cell-based
# Conditions: for MEAN tipranavir FC / MEDIAN tipranavir FC: 1411 patient samples
# Description: In one embodiment, the phenotypic analysis is performed using PHENOSENSE™ (ViroLogic Inc., South San Francisco, Calif.). See Petropoulos et al., 2000, Antimicrob. Agents Chemother. 44:920-928; U.S. Pat. Nos. 5,837,464 and 6,242,187. PHENOSENSE™ is a phenotypic assay that achieves the benefits of phenotypic testing and overcomes the drawbacks of previous assays. Because the assay has been automated, PHENOSENSE™ offers higher throughput under controlled conditions. The result is an assay that accurately defines the susceptibility profile of a patient's HIV isolates to all currently available antiretroviral drugs, and delivers results directly to the physician within about 10 to about 15 days of sample receipt. PHENOSENSE™ is accurate and can obtain results with only one round of viral replication, thereby avoiding selection of subpopulations of virus. The results are quantitative, measuring varying degrees of drug susceptibility, and sensitive—the test can be performed on blood specimens with a viral load of about 500 copies/mL and can detect minority populations of some drug-resistant virus at concentrations of 10% or less of total viral population. Furthermore, the results are reproducible and can vary by less than about 1.4-2.5 fold, depending on the drug, in about 95% of the assays performed.
# A resistance test vector (“RTV”) can then be constructed by incorporating the amplified viral gene sequences into a replication defective viral vector by using any method known in the art of incorporating gene sequences into a vector. In one embodiment, restrictions enzymes and conventional cloning methods are used. See Maniatis et al., 1989, Molecular Cloning: A Laboratory Manual, Cold Spring Harbor Laboratory, NY and Ausubel et al., 1989, Current Protocols in Molecular Biology, Greene Publishing Associates and Wiley Interscience, NY. In some embodiments, ApaI and PinAI restriction enzymes are used. Preferably, the replication defective viral vector is the indicator gene viral vector (“IGVV”). In some embodiments, the viral vector contains a means for detecting replication of the RTV. Preferably, the viral vector contains a luciferase expression cassette.
# The assay can be performed by first co-transfecting host cells with RTV DNA and a plasmid that expresses the envelope proteins of another retrovirus, for example, amphotropic murine leukemia virus (MLV). Following transfection, virus particles can be harvested and used to infect fresh target cells. The completion of a single round of viral replication can be detected by the means for detecting replication contained in the vector. In one embodiment, the completion of a single round of viral replication results in the production of luciferase. Serial concentrations of anti-viral agents can be added at either the transfection step or the infection step.
# Susceptibility to the anti-viral agent can be measured by comparing the replication of the vector in the presence and absence of the anti-viral agent. For example, susceptibility to the anti-viral agent can be measured by comparing the luciferase activity in the presence and absence of the anti-viral agent. Susceptible viruses would produce low levels of luciferase activity in the presence of anti-viral agents, whereas viruses with reduced susceptibility would produce higher levels of luciferase activity.
# The phenotypic assay was conducted using the PHENOSENSE™ (Monogram Biosciences, Inc, South San Francisco, Calif.) HIV assay (Petropoulos et al., 2000, Antimicrob. Agents Chemother. 44:920-928; U.S. Pat. Nos. 5,837,464 and 6,242,187, and International Patent Application No. PCT/US06/05512). Plasma samples were collected from HIV-1-infected patients. IC50 values for tipranavir were obtained for the HIV-1 from the patient sample. This was compared to the IC50 for tipranavir against the NL4-3 (GenBank Accession No. AF324493) reference viral strain. […]
# [1] = Kohlbrenner TPV mutation score 0
# [2] = Kohlbrenner TPV mutation score 0, 4492 samples
# [3] = Kohlbrenner TPV mutation score 1
# [4] = Kohlbrenner TPV mutation score 1, 4492 samples
# [5] = Kohlbrenner TPV mutation score 2
# [6] = Kohlbrenner TPV mutation score 2, 4492 samples
# [7] = Kohlbrenner TPV mutation score 3
# [8] = Kohlbrenner TPV mutation score 3, 4492 samples
# [9] = Kohlbrenner TPV mutation score 4
# [10] = Kohlbrenner TPV mutation score 4, 4492 samples
# [11] = Kohlbrenner TPV mutation score 5
# [12] = Kohlbrenner TPV mutation score 5, 4492 samples
# [13] = Kohlbrenner TPV mutation score 6
# [14] = Kohlbrenner TPV mutation score 6, 4492 samples
# [15] = Kohlbrenner TPV mutation score 7
# [16] = Kohlbrenner TPV mutation score 7, 4492 samples
# [17] = Kohlbrenner TPV mutation score 8-9
# [18] = Kohlbrenner TPV mutation score 8, 4492 samples
# [19] = Kohlbrenner TPV mutation score 9, 4492 samples
# [20] = adjusted mutation score 3, training data with gag (n = 1916)
# [21] = adjusted mutation score 3, validation data with gag (n = 1916)
# [22] = adjusted mutation score 3.5, training data with gag (n = 1916)
# [23] = adjusted mutation score 3.5, validation data with gag (n = 1916)
# [24] = adjusted mutation score 4, training data with gag (n = 1916)
# [25] = adjusted mutation score 4, validation data with gag (n = 1916)
# [26] = adjusted mutation score 4.5, training data with gag (n = 1916)
# [27] = adjusted mutation score 4.5, validation data with gag (n = 1916)
# [28] = adjusted mutation score 5, training data with gag (n = 1916)
# [29] = adjusted mutation score 5, validation data with gag (n = 1916)
# [30] = adjusted mutation score 5.5, training data with gag (n = 1916)
# [31] = adjusted mutation score 5.5, validation data with gag (n = 1916)
# [32] = adjusted mutation score 6, training data with gag (n = 1916)
# [33] = adjusted mutation score 6, validation data with gag (n = 1916)
# [34] = adjusted mutation score 6.5, training data with gag (n = 1916)
# [35] = adjusted mutation score 6.5, validation data with gag (n = 1916)
# [36] = adjusted mutation score <3, training data with gag (n = 1916)
# [37] = adjusted mutation score <3, validation data with gag (n = 1916)
# [38] = adjusted mutation score >=7, training data with gag (n = 1916)
# [39] = adjusted mutation score >=7, validation data with gag (n = 1916)
# [40] = base mutation score 0, validation data (n = 2246)
# [41] = base mutation score 1, validation data (n = 2246)
# [42] = base mutation score 2, validation data (n = 2246)
# [43] = base mutation score 3, validation data (n = 2246)
# [44] = base mutation score 4, validation data (n = 2246)
# [45] = base mutation score 5, validation data (n = 2246)
# [46] = base mutation score 6, validation data (n = 2246)
# [47] = base mutation score 7, validation data (n = 2246)
# [48] = base mutation score 8, validation data (n = 2246)
# [49] = base mutation score 9, validation data (n = 2246)
# [50] = samples with 3 TPV mutations (Kohlbrenner score), 4492 samples
smiles,measurement,setting,value
"CCC[C@@]1(CCc2ccccc2)CC(O)=C([C@H](CC)c2cccc(NS(=O)(=O)c3ccc(C(F)(F)F)cn3)c2)C(=O)O1 [TPV, tipranavir]",MEAN tipranavir FC,[1],0.8
same,MEDIAN tipranavir FC,[1],0.7
same,Mean FC,[2],0.8
same,Median FC,[2],0.7
same,MEAN tipranavir FC,[3],1.0
same,MEDIAN tipranavir FC,[3],0.8
same,Mean FC,[4],1.1
same,Median FC,[4],0.9
same,MEAN tipranavir FC,[5],1.5
same,MEDIAN tipranavir FC,[5],1.1
same,Mean FC,[6],1.6
same,Median FC,[6],1.1
same,MEAN tipranavir FC,[7],3.1
same,MEDIAN tipranavir FC,[7],1.6
same,Mean FC,[8],3.1
same,Median FC,[8],1.7
same,MEAN tipranavir FC,[9],6.1
same,MEDIAN tipranavir FC,[9],3.0
same,Mean FC,[10],5.8
same,Median FC,[10],2.9
same,MEAN tipranavir FC,[11],11
same,MEDIAN tipranavir FC,[11],5.7
same,Mean FC,[12],10
same,Median FC,[12],5.5
same,MEAN tipranavir FC,[13],16
same,MEDIAN tipranavir FC,[13],8.8
same,Mean FC,[14],17
same,Median FC,[14],10.7
same,MEAN tipranavir FC,[15],32
same,MEDIAN tipranavir FC,[15],12
same,Mean FC,[16],24
same,Median FC,[16],16
same,MEAN tipranavir FC,[17],44
same,MEDIAN tipranavir FC,[17],24
same,Mean FC,[18],30
same,Median FC,[18],31
same,Mean FC,[19],42
same,Median FC,[19],53
same,mean TPV FC,[20],2.3
same,median TPV FC,[20],1.5
same,mean TPV FC,[21],1.8
same,median TPV FC,[21],1.4
same,mean TPV FC,[22],3.2
same,median TPV FC,[22],1.5
same,mean TPV FC,[23],2.3
same,median TPV FC,[23],1.5
same,mean TPV FC,[24],2.5
same,median TPV FC,[24],2.0
same,mean TPV FC,[25],2.6
same,median TPV FC,[25],2.0
same,mean TPV FC,[26],3.1
same,median TPV FC,[26],2.2
same,mean TPV FC,[27],3.5
same,median TPV FC,[27],2.4
same,mean TPV FC,[28],4.0
same,median TPV FC,[28],2.8
same,mean TPV FC,[29],4.4
same,median TPV FC,[29],2.8
same,mean TPV FC,[30],5.1
same,median TPV FC,[30],2.4
same,mean TPV FC,[31],5.2
same,median TPV FC,[31],3.2
same,mean TPV FC,[32],7.2
same,median TPV FC,[32],4.9
same,mean TPV FC,[33],8.6
same,median TPV FC,[33],4.5
same,mean TPV FC,[34],10.0
same,median TPV FC,[34],6.3
same,mean TPV FC,[35],12.6
same,median TPV FC,[35],7.4
same,mean TPV FC,[36],1.1
same,median TPV FC,[36],0.9
same,mean TPV FC,[37],1.1
same,median TPV FC,[37],0.9
same,mean TPV FC,[38],19.7
same,median TPV FC,[38],13.4
same,mean TPV FC,[39],20.1
same,median TPV FC,[39],12.5
same,mean TPV FC,[40],0.8
same,median TPV FC,[40],0.7
same,mean TPV FC,[41],1.1
same,median TPV FC,[41],0.9
same,mean TPV FC,[42],1.7
same,median TPV FC,[42],1.2
same,mean TPV FC,[43],3.4
same,median TPV FC,[43],1.8
same,mean TPV FC,[44],6.4
same,median TPV FC,[44],3.2
same,mean TPV FC,[45],10.7
same,median TPV FC,[45],5.7
same,mean TPV FC,[46],18
same,median TPV FC,[46],11.7
same,mean TPV FC,[47],24
same,median TPV FC,[47],19
same,mean TPV FC,[48],31
same,median TPV FC,[48],33
same,mean TPV FC,[49],41
same,median TPV FC,[49],41
same,samples with TPV FC greater than 2-fold,[50],44%
same,samples with TPV FC greater than 4-fold,[50],19%
